# Assay results published in patent publication US7507716B2, “Method for treating pain with prolactin antagonists” (Board of Regents, The University of Texas System, priority 2005, dated 2009).
# B1: PRL: Ovine PRL [oPRL-21, BIO] provided by NHPP; prolactin polypeptide hormone (protein, UniProt P01240 31-229, looked up)
# Prolactin: TPVCPNGPGNCQVSLRDLFDRAVMVSHYIHNLSSEMFNEFDKRYAQGKGFITMALNSCHTSSLPTPEDKEQAQQTHHEVLMSLILGLLRSWNDPLYHLVTEVRGMKGVPDAILSRAIEIEEENKRLLEGMEMIFGQVIPGAKETEPYPVWSGLPSLQTKDEDARHSAFYNLLHCLRRDSSKIDTYLKLLNCRIIYNNNC
# Experiments:
# [1] = system: gene expression in trigeminal ganglia; assay: Affymetrix microarray of trigeminal ganglia RNA after estradiol administration; type: in vivo, rat; settings: OVX rats, estradiol 80 μg/kg/10 days versus vehicle
# Description: At the end of the 10th day, animals were used for behavioral experiments or sacrificed by decapitation and the TG of each individual animal were harvested. Harvested tissue was used for RNA isolation, total protein isolation, or for preparing primary cultures of TG neurons.
# The ground tissue was used to isolate total RNA by the guanidinium thiocyanate method as described previously (Chomczynski and Sacchi, 1987). The isolated RNA was then treated with a DNA-free reagent (DNAse I; Ambion, Austin, Tex.) and submitted to the Microarray Core Facility at the University of Texas Health Science Center at San Antonio. Additional RNA sample aliquots were used as template for the quantitative real time RT-PCR experiments.
# Microarray analysis: Target preparation, hybridization, staining, scanning and analysis of image: RNA samples derived from TG of OVX rats treated with a single dose (80 μg/kg per day) of E2 or vehicle (n=5 for each group) were prepared for hybridization to Affymetrix (Santa Clara, Calif.) RG-U34A arrays according to the manufacturer's instructions. Total RNA was used as a template for double-stranded cDNA synthesis (Superscript Double-Stranded cDNA Synthesis kit, Invitrogen, Carlsbad, Calif.), which was used as a template for biotin-labeled cRNA synthesis (Enzo BioArray High Yield RNA Transcription Labeling Kit, Affymetrix). Purified (RNeasy kit, Qiagen, Valencia, Calif.) labeled-cRNA was hybridized to the rat genomic RG-U34A GeneChips for 16 h at 45° C. Following hybridization, the probe arrays were washed and stained using the GeneChip Fluidics station protocol EukGE-ES2. The intensity of bound dye was measured with an argon laser confocal scanner (GeneArray Scanner, Agilent, Palo Alto, Calif.). The probe arrays were scanned twice and the stored images were aligned and analyzed using the GeneClip software Micro array Analysis Suite (MAS) 5.0 (Affymetrix, Santa Clara, Calif.). Data were imported into the GeneSpring 5.1 software (Silicon Genetics, Redwood City, Calif.) and a list of genes of relative expression of ≧1.5 and ≧0.5 fold was obtained. The data were imported into the R software package and the probe level data were converted to expression measures using the Affy package (Bolstad et al., 2003) from Bioconductor. Expression values for each mRNA were obtained by the Robust Multi-array Analysis (RMA) method as described elsewhere (Boistad et al., 2003).
# [2] = system: TRPV1; assay: TRPV1 phosphorylation (32P incorporation, immunoprecipitation); type: cell-based, rat; settings: PRL 40 nM 10 min
# Description: The activity of TRPV1 is dependent upon its phosphorylation status. Hyperphosphorylation of TRPV1 is associated with increased responsiveness to capsaicin (Bhave et al., 2003; Mohapatra and Nau, 2005; Zhang et al., 2005; Mandadi et al., 2006). Since PRL-signaling through PRL-R is known to activate various intracellular kinases pathways, the effect of PRL on TRPV1 phosphorylation status in cultured TG neurons was assessed. Cultured TG neurons were incubated with PRL (40 nM) or vehicle for 10 min in the presence of radioactive phosphate (P^32-orthophosphate). Extracts of the radiolabelled TG cultures were prepared and subjected to immunoprecipated using an antibody that specifically recognizes TRPV1, and the resulting immune complexes were resolved by SDS-PAGE and prepared for immunoblot analysis. The blots were subjected to autoradiography to visualize radiolabelled P^32-TRPV1 and to determine its relative abundance in the presence of PRL. The resolved protein was then immunoblotted using an antibody raised against TRPV1 to ensure that the observed differences in radiolabelled TRPV1 abundance are not due to technical errors (e.g., unequal gel loading). […]
# Autoradiography and Western blot results were scanned and quantified using NIH Image 1.62. […]
molecule,measurement,setting,value
"C[C@]12CC[C@@H]3c4ccc(O)cc4CC[C@H]3[C@@H]1CC[C@@H]2O [estradiol, 17-β-estradiol]","Trk A 3′ mRNA sequence expression, GS (change cut-off)",[1]; probe set AA958274_at,≧1.5
same,"Trk A 3′ mRNA sequence expression, SAM",[1]; probe set AA958274_at,1.5
same,"Histidine ammonia lyase expression, GS (change cut-off)",[1]; probe set AB002393_at,≧1.5
same,"Histidine ammonia lyase expression, SAM",[1]; probe set AB002393_at,1.5
same,"Ania-10 early gene mRNA, 3′ UTR expression, GS (change cut-off)",[1]; probe set AF050662UTR#1_at,≧1.5
same,"Ania-10 early gene mRNA, 3′ UTR expression, SAM",[1]; probe set AF050662UTR#1_at,1.6
same,"Ania-12 early gene mRNA, 3′ UTR expression, GS (change cut-off)",[1]; probe set AF050664UTR#1_at,≧1.5
same,"Ania-12 early gene mRNA, 3′ UTR expression, SAM",[1]; probe set AF050664UTR#1_at,1.5
same,"Insulin receptor substrate 2 (IRS-2) mRNA expression, GS (change cut-off)",[1]; probe set AF087674_at,≧1.5
same,"Insulin receptor substrate 2 (IRS-2) mRNA expression, SAM",[1]; probe set AF087674_at,1.4
same,"Interleukin 1 alpha expression, GS (change cut-off)",[1]; probe set D00403_g_at,≧1.5
same,"Interleukin 1 alpha expression, SAM","[1]; probe set D00403_g_at, false positive by RT-PCR",1.3
same,"Aldosterone synthase, exon 9 expression, GS (change cut-off)",[1]; probe set D14097cds_s_at,≧1.5
same,"Aldosterone synthase, exon 9 expression, SAM",[1]; probe set D14097cds_s_at,1.5
same,"Cytochrome P450, 3a18 expression, GS (change cut-off)",[1]; probe set D38381_s_at,≧1.5
same,"Cytochrome P450, 3a18 expression, SAM",[1]; probe set D38381_s_at,1.3
same,"Prepro bone inducing protein expression, GS (change cut-off)",[1]; probe set D49494cds_s_at,≧1.5
same,"Prepro bone inducing protein expression, SAM",[1]; probe set D49494cds_s_at,1.3
same,"Prolactin expression, GS (change cut-off)",[1]; probe set E03166cds_s_at,≧1.5
same,"Prolactin expression, SAM",[1]; probe set E03166cds_s_at,6.9
same,"Nuclear receptor subfamily 1, Group D, member 1 expression, GS (change cut-off)",[1]; probe set M25801_g_at,≧1.5
same,"Nuclear receptor subfamily 1, Group D, member 1 expression, SAM",[1]; probe set M25801_g_at,1.5
same,"Protein phosphatase 3, catalytic subunit, beta isoform expression, GS (change cut-off)",[1]; probe set M31809_at,≦1.5
same,"Protein phosphatase 3, catalytic subunit, beta isoform expression, SAM",[1]; probe set M31809_at,0.6
same,"Electron transf. flavoprotein (Etfa), mRNA expression, GS (change cut-off)",[1]; probe set Rc_AA894174_at,≦1.5
same,"Electron transf. flavoprotein (Etfa), mRNA expression, SAM",[1]; probe set Rc_AA894174_at,0.7
same,"Arachidonate 12-lipoxygenase expression, GS (change cut-off)",[1]; probe set S69383_at,≦1.5
same,"Arachidonate 12-lipoxygenase expression, SAM",[1]; probe set S69383_at,0.5
same,"Prolactin expression, GS (change cut-off)",[1]; probe set V01244_at,≧1.5
same,"Prolactin expression, SAM",[1]; probe set V01244_at,12.8
same,"Prolactin expression, GS (change cut-off)",[1]; probe set V01250cds_s_at,≧1.5
same,"Prolactin expression, SAM",[1]; probe set V01250cds_s_at,3
same,"Interleukin 5 (colony-stimulating factor, eosinophil) expression, GS (change cut-off)",[1]; probe set X54419cds_at,≧1.5
same,"Interleukin 5 (colony-stimulating factor, eosinophil) expression, SAM",[1]; probe set X54419cds_at,1.3
same,"Cytosolic epoxide hydrolase expression, GS (change cut-off)",[1]; probe set X60328_at,≧1.5
same,"Cytosolic epoxide hydrolase expression, SAM",[1]; probe set X60328_at,1.7
same,"Similar to M. musculus pre 45S pre rRNA gene expression, GS (change cut-off)",[1]; probe set rc_AA859966_i_at,≧1.5
same,"Similar to M. musculus pre 45S pre rRNA gene expression, SAM",[1]; probe set rc_AA859966_i_at,4.1
same,"Cytochrome P450, subfamily IIC6 expression, GS (change cut-off)",[1]; probe set rc_AA945571_sat,≧1.5
same,"Cytochrome P450, subfamily IIC6 expression, SAM",[1]; probe set rc_AA945571_sat,1.7
B1,TRPV1 phosphorylation status,[2]; TG neurons from OVX rats,no observable effect
same,phosphorylation state of TRPV1,[2]; neurons from intact female rats,150±13%
